Assay [1] has as its target human recombinant 11β-HSD1 (Homo sapiens, UniProt P28845). Briefly: Test for measuring human 11β-HSD1 inhibitory activity (HTRF cortisol detection). The format is biochemical. The note with it: human recombinant enzyme, 200 nM cortisone, 40 μM NADPH, pH 6.6, room temperature 1 hour; average of 3 wells. How it is done:
(§1) (1) Test for Measuring Human 11β-HSD1/11β-HSD2 Inhibitory Activity
(§2) The procedure for measuring human 11β-HSD1/11β-HSD2 inhibitory activity is as follows. The enzymatic reaction and measurement were performed using a 384-well plate. The reaction was carried out by adding a test compound in various concentrations to a reaction solution containing a 10 mM phosphate buffer solution (pH 6.6), 200 nM cortisone, 40 μM reduced nicotinamide adenine dinucleotide phosphate (NADPH), and human recombinant 11β-HSD1 and then incubating the mixture at room temperature for 1 hour (10 μl/well). The test compound was dissolved in dimethyl sulfoxide (DMSO) to prepare a sample so that the DMSO concentration in the reaction solution became 1%. After the enzymatic reaction, an enzymatic inhibitory activity was measured by detecting cortisol using homogeneous time-resolved fluorescence (HTRF). XL-665-labeled cortisol containing 400 μM carbenoxolone and cryptate-labeled cortisol antibody (CIS Bio International) were added in each amount of 5 μl/well, followed by incubation at room temperature for 2 hours. Then, fluorescence intensity was measured using a fluorophotometer (product name: Discovery, PerkinElmer) and an enzymatic inhibitory activity was calculated based on two-wavelength fluorescence intensity ratio (665 nm/620 nm).
(§3) The results of the measurement were calculated as an average of the values for 3 wells obtained under the same conditions.
In general terms: Time-resolved FRET reads energy transfer from a long-lived donor to a nearby acceptor.

Assay [2] has as its target T1, human recombinant 11β-HSD2 (Homo sapiens, UniProt P80365).
T1 sequence (P80365 1-405): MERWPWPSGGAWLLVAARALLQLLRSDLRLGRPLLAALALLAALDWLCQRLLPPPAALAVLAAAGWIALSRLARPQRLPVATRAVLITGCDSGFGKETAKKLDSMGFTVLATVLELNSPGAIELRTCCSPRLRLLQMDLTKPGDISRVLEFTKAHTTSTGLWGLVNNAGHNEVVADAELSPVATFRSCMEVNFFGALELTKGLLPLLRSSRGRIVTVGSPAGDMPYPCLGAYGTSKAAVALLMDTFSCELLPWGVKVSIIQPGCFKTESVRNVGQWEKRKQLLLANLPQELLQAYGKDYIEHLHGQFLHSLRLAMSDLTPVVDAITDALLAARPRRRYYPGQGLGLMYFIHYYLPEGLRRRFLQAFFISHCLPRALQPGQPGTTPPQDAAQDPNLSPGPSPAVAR
As to the kind of experiment: Test for measuring human 11β-HSD2 inhibitory activity (HTRF cortisol detection). It is filed as biochemical. The note with it: human recombinant enzyme, 200 nM cortisol, 200 μM NAD, pH 8.0, 37° C. 2 hours; average of 3 wells. How it is done: as §1, §2
The measurement of 11β-HSD2 inhibitory activity was performed in the same manner as in the measurement of 11β-HSD1 inhibitory activity except for enzymatic reaction conditions. The enzymatic reaction was carried out by adding a test compound in various concentrations to a reaction solution containing a 40 mM tris-hydrochloride buffer solution (Tris-HCl) (pH 8.0), 200 nM cortisol, 200 μM nicotinamide adenine dinucleotide (NAD), and human recombinant 11β-HSD2 and then incubating the mixture at 37° C. for 2 hours (10 μl/well).
as §3

Another assay concerns ob/ob mice. As to the kind of experiment: ob/ob mouse blood-glucose lowering test. It is filed as in vivo. The note with it: male ob/ob mice, 30 mg/kg bid orally for 9 days, measured 12 hours after final administration, non-fasting, n=6. The method, then:
(2) ob/ob Mouse Blood-Glucose Lowering Test
A compound solution was prepared using 6% 2-hydroxypropyl-p-cyclodextrin as a solvent. Using 8 weeks-old male ob/ob mice (blood-glucose level of 300 mg or more), blood-glucose levels were measured under non-fasting conditions and then the mice were divided into groups so that the blood-glucose levels became even among the groups. The test compound was orally administered twice per day repeatedly for 9 days (30 mg/kg, bid) and a blood-sugar level was measured 12 hours after final administration (n=6). The blood-glucose level was measured by subjecting a collected blood to protein-removing treatment and then conducting colorimetric quantitative determination of a glucose level (mg/dL) in the supernatant.

Our source for the IC50 and blood-glucose lowering action values is patent publication US7776897B2, “Triazole derivative or salt thereof” (Astellas Pharma Inc., priority 2004, dated 2010).

Sequence of human recombinant 11β-HSD1 (P28845 whole entry): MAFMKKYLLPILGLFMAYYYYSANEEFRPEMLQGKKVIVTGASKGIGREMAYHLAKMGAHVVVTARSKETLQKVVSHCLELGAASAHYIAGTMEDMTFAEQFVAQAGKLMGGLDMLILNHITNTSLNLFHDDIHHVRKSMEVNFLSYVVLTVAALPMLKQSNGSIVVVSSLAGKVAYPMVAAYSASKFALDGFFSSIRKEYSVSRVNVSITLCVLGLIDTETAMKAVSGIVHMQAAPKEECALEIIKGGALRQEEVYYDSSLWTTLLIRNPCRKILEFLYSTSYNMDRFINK

Consider `c1csc(C2(c3nnc4n3CCCCCC4)CCCC2)c1` [Example 68], for which the half-inhibitory concentration (IC50) (in general, the point on the concentration scale where inhibition reaches its midpoint) was 0.0044 µM in assay [1] and over 1 µM in assay [2]. Further, in the assay with ob/ob mice, the blood-glucose lowering action is 32%. Consider `CC(C)(c1cccs1)c1nnc2n1CCCCCC2` [Example 100], for which the values for the half-inhibitory concentration (IC50) in assay [1] and in assay [2] were 0.0066 µM and over 1 µM, respectively.

As for `Clc1ccc(C2(c3nnc4n3CCCCC4)CCCC2)s1` [Example 62], the half-maximal inhibitory concentration (IC50) in assay [1] is 0.0053 µM; in assay [2], over 3 µM. With `Cn1cccc1C(C)(C)c1nnc(-c2ccccc2Cl)n1C` [Example 158], the concentration for half-maximal inhibition (IC50) in assay [1] was 0.018 µM; in assay [2] it was over 3 µM. Regarding `Cn1c(-c2ccccc2Cl)nnc1C(C)(C)NC(=O)c1ccccc1` [Example 174], the IC50 in assay [1] worked out at 0.06 µM. Still for that read-out and setting: then `CN(C1(c2nnc(-c3ccccc3Cl)n2C)CCCC1)S(=O)(=O)c1ccccc1` [Example 115], with 0.015 µM. In the case of `c1csc(C2(c3nnc4n3CCCCC4)CCCC2)c1` [Example 60], the concentration for half-maximal inhibition (IC50) was 0.013 µM in assay [1] and over 3 µM in assay [2].
